The compounds below were run against Serine/threonine-protein kinase B-raf (Homo sapiens, UniProt P15056, V600E) (assay: Inhibition of B-raf V600E mutant (unknown origin) expressed in Sf9 cells using biotin-MEK1substrate incubated for 1 hr).
Sequence of Serine/threonine-protein kinase B-raf (P15056 2-766 V600E limits assumed): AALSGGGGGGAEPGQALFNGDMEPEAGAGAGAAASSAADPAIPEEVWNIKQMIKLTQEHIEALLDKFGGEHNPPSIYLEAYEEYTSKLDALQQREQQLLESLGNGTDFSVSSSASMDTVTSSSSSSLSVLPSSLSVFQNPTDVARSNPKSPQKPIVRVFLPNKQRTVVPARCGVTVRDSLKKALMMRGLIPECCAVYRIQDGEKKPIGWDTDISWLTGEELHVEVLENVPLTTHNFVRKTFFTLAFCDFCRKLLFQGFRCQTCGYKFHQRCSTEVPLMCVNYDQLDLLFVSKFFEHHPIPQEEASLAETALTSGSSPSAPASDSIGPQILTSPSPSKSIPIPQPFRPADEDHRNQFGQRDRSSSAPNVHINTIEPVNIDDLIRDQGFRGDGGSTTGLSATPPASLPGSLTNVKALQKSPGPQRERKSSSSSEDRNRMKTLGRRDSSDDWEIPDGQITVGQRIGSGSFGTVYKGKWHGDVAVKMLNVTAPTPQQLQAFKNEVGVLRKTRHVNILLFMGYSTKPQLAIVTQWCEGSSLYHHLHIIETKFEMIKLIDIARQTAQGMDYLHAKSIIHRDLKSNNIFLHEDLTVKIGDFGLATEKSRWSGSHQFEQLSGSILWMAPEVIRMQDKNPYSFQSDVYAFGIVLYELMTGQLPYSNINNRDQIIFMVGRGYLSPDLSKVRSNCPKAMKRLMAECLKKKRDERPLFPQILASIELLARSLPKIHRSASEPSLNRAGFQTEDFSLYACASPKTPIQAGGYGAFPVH

IC50, ≤ 10 µM:
CCC(C)S(=O)(=O)Nc1ccc(F)c(C(=O)c2c[nH]c3ncncc23)c1F (stereo not given), CCS(=O)(=O)Nc1ccc(F)c(C(=O)c2c[nH]c3ncncc23)c1F, O=C(c1c(F)ccc(NS(=O)(=O)N2CCOCC2)c1F)c1c[nH]c2ncncc12, O=C(c1cccc(NS(=O)(=O)C2CCCC2)c1F)c1c[nH]c2ncncc12, O=C(c1cccc(NS(=O)(=O)CC(F)(F)F)c1F)c1c[nH]c2ncncc12, O=C(c1c(F)ccc(NS(=O)(=O)CC(F)(F)F)c1F)c1c[nH]c2ncncc12, O=C(c1c(F)ccc(NS(=O)(=O)c2ccccn2)c1F)c1c[nH]c2ncncc12, CC(C)c1ccc(S(=O)(=O)Nc2ccc(F)c(C(=O)c3c[nH]c4ncncc34)c2F)cc1, O=C(c1c(F)ccc(NS(=O)(=O)c2cccc(OC(F)F)c2)c1F)c1c[nH]c2ncncc12, CC(C)S(=O)(=O)Nc1ccc(F)c(C(=O)c2c[nH]c3ncncc23)c1F, O=C(c1cccc(NS(=O)(=O)c2cccnc2)c1F)c1c[nH]c2ncncc12, CC(C)(C)c1ccc(S(=O)(=O)Nc2ccc(F)c(C(=O)c3c[nH]c4ncncc34)c2F)cc1, CN(C)S(=O)(=O)Nc1cccc(C(=O)c2c[nH]c3ncncc23)c1F, O=C(c1cccc(NS(=O)(=O)N2CCCC2)c1F)c1c[nH]c2ncncc12, O=C(c1cccc(NS(=O)(=O)C2CCCCC2)c1F)c1c[nH]c2ncncc12, O=C(c1c(F)ccc(NS(=O)(=O)c2ccc(OC(F)F)cc2)c1F)c1c[nH]c2ncncc12, CC(C)CS(=O)(=O)Nc1ccc(F)c(C(=O)c2c[nH]c3ncncc23)c1F, O=C(c1cccc(NS(=O)(=O)C2CCC2)c1F)c1c[nH]c2ncncc12, O=C(c1c(F)ccc(NS(=O)(=O)C2CCCCC2)c1F)c1c[nH]c2ncncc12, CCCS(=O)(=O)Nc1cccc(C(=O)c2c[nH]c3ncncc23)c1F, O=C(c1c(F)ccc(NS(=O)(=O)c2c(F)cccc2F)c1F)c1c[nH]c2ncncc12, CCCS(=O)(=O)Nc1ccc(F)c(C(=O)c2c[nH]c3ncnc(C)c23)c1F

What follows are compounds tested against Vascular endothelial growth factor receptor 2 (Homo sapiens, UniProt P35968) (assay: Inhibition of KDR (unknown origin) by FRET assay).
Sequence of Vascular endothelial growth factor receptor 2 (P35968 whole entry): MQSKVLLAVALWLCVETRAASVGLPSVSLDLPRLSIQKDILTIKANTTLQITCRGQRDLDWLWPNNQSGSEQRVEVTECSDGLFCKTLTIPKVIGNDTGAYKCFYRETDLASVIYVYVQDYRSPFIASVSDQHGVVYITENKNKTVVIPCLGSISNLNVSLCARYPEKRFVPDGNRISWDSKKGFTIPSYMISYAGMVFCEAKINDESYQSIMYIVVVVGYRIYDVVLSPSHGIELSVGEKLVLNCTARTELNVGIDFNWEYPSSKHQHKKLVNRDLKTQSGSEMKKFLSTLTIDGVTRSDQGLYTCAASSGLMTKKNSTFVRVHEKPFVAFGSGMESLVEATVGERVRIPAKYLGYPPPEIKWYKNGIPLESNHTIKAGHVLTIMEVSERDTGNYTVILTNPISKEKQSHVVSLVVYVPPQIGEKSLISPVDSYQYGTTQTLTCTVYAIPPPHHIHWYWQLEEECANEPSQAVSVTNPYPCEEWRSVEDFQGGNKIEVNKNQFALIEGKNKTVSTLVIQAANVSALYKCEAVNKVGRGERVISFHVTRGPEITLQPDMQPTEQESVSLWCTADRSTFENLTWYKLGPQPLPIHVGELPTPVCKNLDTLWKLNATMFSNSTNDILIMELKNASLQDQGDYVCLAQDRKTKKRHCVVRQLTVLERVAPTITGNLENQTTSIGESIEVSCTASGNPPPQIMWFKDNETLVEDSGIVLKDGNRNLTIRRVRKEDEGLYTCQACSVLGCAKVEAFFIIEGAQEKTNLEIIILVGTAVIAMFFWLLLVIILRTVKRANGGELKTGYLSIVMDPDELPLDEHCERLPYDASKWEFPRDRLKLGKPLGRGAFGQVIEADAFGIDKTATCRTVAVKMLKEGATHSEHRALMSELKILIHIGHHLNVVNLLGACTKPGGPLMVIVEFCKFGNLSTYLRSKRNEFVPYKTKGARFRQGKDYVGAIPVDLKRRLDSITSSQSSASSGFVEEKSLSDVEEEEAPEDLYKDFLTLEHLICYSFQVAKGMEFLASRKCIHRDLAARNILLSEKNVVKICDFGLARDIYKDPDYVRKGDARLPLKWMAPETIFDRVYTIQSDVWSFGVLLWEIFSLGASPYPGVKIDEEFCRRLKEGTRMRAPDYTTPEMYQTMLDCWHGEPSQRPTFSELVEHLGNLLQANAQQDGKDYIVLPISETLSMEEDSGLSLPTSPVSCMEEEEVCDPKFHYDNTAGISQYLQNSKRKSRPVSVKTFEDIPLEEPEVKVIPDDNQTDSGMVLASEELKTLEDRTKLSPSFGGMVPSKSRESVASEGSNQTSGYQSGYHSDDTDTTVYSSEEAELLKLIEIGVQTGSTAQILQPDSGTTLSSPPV

IC50, ≤ 10 µM:
O=C(c1cccc(NS(=O)(=O)C2CCCC2)c1F)c1c[nH]c2ncncc12, CC(C)c1ccc(S(=O)(=O)Nc2ccc(F)c(C(=O)c3c[nH]c4ncncc34)c2F)cc1, CC(C)S(=O)(=O)Nc1ccc(F)c(C(=O)c2c[nH]c3ncncc23)c1F, CC(C)(C)c1ccc(S(=O)(=O)Nc2ccc(F)c(C(=O)c3c[nH]c4ncncc34)c2F)cc1, O=C(c1cccc(NS(=O)(=O)C2CCC2)c1F)c1c[nH]c2ncncc12, O=C(c1c(F)ccc(NS(=O)(=O)C2CCCCC2)c1F)c1c[nH]c2ncncc12, O=C(c1c(F)ccc(NS(=O)(=O)c2c(F)cccc2F)c1F)c1c[nH]c2ncncc12, CCCS(=O)(=O)Nc1ccc(F)c(C(=O)c2c[nH]c3ncnc(C)c23)c1F

Each compound was assayed against RAF proto-oncogene serine/threonine-protein kinase (Homo sapiens, UniProt P04049) (assay: Inhibition of human C-raf using biotin-MEK1 substrate incubated for 1 hr).
Sequence of RAF proto-oncogene serine/threonine-protein kinase (P04049 whole entry): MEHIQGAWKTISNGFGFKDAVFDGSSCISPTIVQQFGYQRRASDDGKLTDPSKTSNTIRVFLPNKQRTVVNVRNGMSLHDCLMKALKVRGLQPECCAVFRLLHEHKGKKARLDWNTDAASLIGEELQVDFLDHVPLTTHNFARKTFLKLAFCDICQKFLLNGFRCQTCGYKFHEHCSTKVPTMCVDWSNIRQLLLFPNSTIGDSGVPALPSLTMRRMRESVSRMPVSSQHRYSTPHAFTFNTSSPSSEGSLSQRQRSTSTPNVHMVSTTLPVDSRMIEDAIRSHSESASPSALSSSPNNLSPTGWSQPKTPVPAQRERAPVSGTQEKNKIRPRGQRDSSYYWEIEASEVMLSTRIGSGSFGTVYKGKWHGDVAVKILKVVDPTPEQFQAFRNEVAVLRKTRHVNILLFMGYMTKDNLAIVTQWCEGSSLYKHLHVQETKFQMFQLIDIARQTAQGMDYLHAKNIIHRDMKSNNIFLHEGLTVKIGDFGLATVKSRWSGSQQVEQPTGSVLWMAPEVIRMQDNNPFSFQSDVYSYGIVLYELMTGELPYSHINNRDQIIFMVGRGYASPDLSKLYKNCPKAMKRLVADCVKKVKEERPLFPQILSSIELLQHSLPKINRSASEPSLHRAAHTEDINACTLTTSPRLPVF

IC50, ≤ 10 µM:
CCC(C)S(=O)(=O)Nc1ccc(F)c(C(=O)c2c[nH]c3ncncc23)c1F (stereo not given), CCS(=O)(=O)Nc1ccc(F)c(C(=O)c2c[nH]c3ncncc23)c1F, O=C(c1c(F)ccc(NS(=O)(=O)N2CCOCC2)c1F)c1c[nH]c2ncncc12, O=C(c1cccc(NS(=O)(=O)C2CCCC2)c1F)c1c[nH]c2ncncc12, O=C(c1cccc(NS(=O)(=O)CC(F)(F)F)c1F)c1c[nH]c2ncncc12, O=C(c1c(F)ccc(NS(=O)(=O)CC(F)(F)F)c1F)c1c[nH]c2ncncc12, O=C(c1c(F)ccc(NS(=O)(=O)c2ccccn2)c1F)c1c[nH]c2ncncc12, CC(C)c1ccc(S(=O)(=O)Nc2ccc(F)c(C(=O)c3c[nH]c4ncncc34)c2F)cc1, O=C(c1c(F)ccc(NS(=O)(=O)c2cccc(OC(F)F)c2)c1F)c1c[nH]c2ncncc12, O=C(c1cccc(NS(=O)(=O)c2cccnc2)c1F)c1c[nH]c2ncncc12, CC(C)(C)c1ccc(S(=O)(=O)Nc2ccc(F)c(C(=O)c3c[nH]c4ncncc34)c2F)cc1, O=C(c1cccc(NS(=O)(=O)N2CCCC2)c1F)c1c[nH]c2ncncc12, O=C(c1cccc(NS(=O)(=O)C2CCCCC2)c1F)c1c[nH]c2ncncc12, O=C(c1c(F)ccc(NS(=O)(=O)c2ccc(OC(F)F)cc2)c1F)c1c[nH]c2ncncc12, CC(C)CS(=O)(=O)Nc1ccc(F)c(C(=O)c2c[nH]c3ncncc23)c1F, O=C(c1c(F)ccc(NS(=O)(=O)C2CCCCC2)c1F)c1c[nH]c2ncncc12, CCCS(=O)(=O)Nc1cccc(C(=O)c2c[nH]c3ncncc23)c1F, O=C(c1c(F)ccc(NS(=O)(=O)c2c(F)cccc2F)c1F)c1c[nH]c2ncncc12, CCCS(=O)(=O)Nc1ccc(F)c(C(=O)c2c[nH]c3ncnc(C)c23)c1F

The compounds below were run against Mast/stem cell growth factor receptor Kit (Homo sapiens, UniProt P10721) (assay: Inhibition of Kit (unknown origin) expressed in Escherichia coli).
Sequence of Mast/stem cell growth factor receptor Kit (P10721 whole entry): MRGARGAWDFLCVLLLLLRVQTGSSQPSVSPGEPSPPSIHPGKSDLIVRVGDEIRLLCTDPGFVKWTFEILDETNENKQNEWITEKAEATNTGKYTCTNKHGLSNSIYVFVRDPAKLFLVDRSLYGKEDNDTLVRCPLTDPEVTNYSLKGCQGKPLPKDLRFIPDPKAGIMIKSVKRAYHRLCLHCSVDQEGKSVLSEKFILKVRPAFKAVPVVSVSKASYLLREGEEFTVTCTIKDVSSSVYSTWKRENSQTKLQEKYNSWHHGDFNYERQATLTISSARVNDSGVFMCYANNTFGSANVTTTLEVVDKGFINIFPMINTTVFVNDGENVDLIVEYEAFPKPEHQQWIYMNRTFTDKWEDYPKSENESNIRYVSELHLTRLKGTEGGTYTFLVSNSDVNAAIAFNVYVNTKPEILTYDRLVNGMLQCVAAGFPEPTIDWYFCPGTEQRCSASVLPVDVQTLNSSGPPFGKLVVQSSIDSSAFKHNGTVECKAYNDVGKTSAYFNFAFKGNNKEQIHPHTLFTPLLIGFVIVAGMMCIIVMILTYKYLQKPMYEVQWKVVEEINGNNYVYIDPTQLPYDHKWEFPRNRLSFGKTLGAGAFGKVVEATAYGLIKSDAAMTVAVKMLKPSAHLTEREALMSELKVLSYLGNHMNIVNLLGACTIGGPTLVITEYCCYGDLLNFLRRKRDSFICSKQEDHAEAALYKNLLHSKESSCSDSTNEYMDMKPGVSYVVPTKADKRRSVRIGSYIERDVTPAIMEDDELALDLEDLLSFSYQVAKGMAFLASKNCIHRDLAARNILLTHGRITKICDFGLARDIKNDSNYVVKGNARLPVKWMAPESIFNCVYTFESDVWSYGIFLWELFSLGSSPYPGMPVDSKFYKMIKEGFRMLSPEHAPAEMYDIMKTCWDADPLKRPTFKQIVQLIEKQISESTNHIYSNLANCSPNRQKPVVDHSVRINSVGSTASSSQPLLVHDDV

IC50, ≤ 10 µM:
O=C(c1c(F)ccc(NS(=O)(=O)N2CCOCC2)c1F)c1c[nH]c2ncncc12, CN(C)S(=O)(=O)Nc1cccc(C(=O)c2c[nH]c3ncncc23)c1F, O=C(c1cccc(NS(=O)(=O)C2CCCCC2)c1F)c1c[nH]c2ncncc12, CC(C)CS(=O)(=O)Nc1ccc(F)c(C(=O)c2c[nH]c3ncncc23)c1F, O=C(c1cccc(NS(=O)(=O)C2CCC2)c1F)c1c[nH]c2ncncc12, O=C(c1c(F)ccc(NS(=O)(=O)C2CCCCC2)c1F)c1c[nH]c2ncncc12, CCCS(=O)(=O)Nc1ccc(F)c(C(=O)c2c[nH]c3ncnc(C)c23)c1F

Each compound was assayed against T1, Serine/threonine-protein kinase A-Raf (Homo sapiens, UniProt P10398) (assay: Inhibition of A-Raf (unknown origin)).
T1 sequence (P10398 whole entry): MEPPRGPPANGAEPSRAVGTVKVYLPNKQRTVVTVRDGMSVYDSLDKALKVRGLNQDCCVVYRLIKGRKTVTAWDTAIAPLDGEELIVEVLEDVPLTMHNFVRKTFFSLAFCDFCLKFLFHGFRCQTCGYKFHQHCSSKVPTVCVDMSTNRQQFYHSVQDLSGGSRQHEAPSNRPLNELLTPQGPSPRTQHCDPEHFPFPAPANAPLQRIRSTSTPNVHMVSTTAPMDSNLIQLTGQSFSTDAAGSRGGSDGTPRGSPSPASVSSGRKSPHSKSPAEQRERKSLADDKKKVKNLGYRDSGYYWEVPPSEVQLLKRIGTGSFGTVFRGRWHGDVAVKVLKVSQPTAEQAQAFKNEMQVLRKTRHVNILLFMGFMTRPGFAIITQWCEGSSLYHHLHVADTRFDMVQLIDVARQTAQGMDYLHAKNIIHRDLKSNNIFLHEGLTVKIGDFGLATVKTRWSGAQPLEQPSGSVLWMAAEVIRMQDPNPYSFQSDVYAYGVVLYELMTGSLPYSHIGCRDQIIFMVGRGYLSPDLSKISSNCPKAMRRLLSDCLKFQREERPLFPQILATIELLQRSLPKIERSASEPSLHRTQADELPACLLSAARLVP

IC50, ≤ 10 µM:
CC(C)c1ccc(S(=O)(=O)Nc2ccc(F)c(C(=O)c3c[nH]c4ncncc34)c2F)cc1, O=C(c1c(F)ccc(NS(=O)(=O)c2cccc(OC(F)F)c2)c1F)c1c[nH]c2ncncc12, O=C(c1c(F)ccc(NS(=O)(=O)c2ccc(OC(F)F)cc2)c1F)c1c[nH]c2ncncc12, CCCS(=O)(=O)Nc1cccc(C(=O)c2c[nH]c3ncncc23)c1F

Each compound was assayed against Proto-oncogene tyrosine-protein kinase Src (Homo sapiens, UniProt P12931) (assay: Inhibition of Src (unknown origin) expressed in Escherichia coli using biotin-(E4Y)3 substrate).

IC50, ≤ 10 µM:
CCCS(=O)(=O)Nc1ccc(F)c(C(=O)c2c[nH]c3ncnc(C)c23)c1F

What follows are compounds tested against Macrophage colony-stimulating factor 1 receptor (Homo sapiens, UniProt P07333) (assay: Inhibition of Fms (unknown origin)).
Sequence of Macrophage colony-stimulating factor 1 receptor (P07333 whole entry): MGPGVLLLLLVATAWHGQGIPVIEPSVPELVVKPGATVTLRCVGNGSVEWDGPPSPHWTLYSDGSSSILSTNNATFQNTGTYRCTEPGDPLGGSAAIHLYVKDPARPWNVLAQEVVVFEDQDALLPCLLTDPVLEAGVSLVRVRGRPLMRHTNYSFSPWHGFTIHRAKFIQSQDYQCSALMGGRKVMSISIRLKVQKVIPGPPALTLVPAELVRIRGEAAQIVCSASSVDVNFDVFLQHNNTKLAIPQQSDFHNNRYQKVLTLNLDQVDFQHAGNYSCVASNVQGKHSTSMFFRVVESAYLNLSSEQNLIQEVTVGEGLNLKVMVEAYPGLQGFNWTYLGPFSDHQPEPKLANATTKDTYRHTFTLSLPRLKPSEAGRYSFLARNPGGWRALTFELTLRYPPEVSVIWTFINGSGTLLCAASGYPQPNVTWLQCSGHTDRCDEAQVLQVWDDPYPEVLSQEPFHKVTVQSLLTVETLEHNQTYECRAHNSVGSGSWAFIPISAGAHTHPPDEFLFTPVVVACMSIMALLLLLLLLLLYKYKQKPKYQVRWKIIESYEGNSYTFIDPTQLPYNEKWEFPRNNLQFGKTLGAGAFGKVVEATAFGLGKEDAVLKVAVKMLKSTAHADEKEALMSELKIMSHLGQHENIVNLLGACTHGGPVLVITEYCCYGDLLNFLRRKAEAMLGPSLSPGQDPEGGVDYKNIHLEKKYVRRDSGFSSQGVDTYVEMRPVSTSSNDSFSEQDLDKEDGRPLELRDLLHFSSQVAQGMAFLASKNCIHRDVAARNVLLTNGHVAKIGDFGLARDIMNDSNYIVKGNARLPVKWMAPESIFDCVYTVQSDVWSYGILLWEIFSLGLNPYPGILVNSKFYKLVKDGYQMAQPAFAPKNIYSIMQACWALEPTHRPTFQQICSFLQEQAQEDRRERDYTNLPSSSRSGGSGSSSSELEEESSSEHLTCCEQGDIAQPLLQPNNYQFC

IC50, ≤ 10 µM:
O=C(c1c(F)ccc(NS(=O)(=O)N2CCOCC2)c1F)c1c[nH]c2ncncc12, O=C(c1c(F)ccc(NS(=O)(=O)C2CCCCC2)c1F)c1c[nH]c2ncncc12, CCCS(=O)(=O)Nc1ccc(F)c(C(=O)c2c[nH]c3ncnc(C)c23)c1F

What follows are compounds tested against High affinity nerve growth factor receptor (Homo sapiens, UniProt P04629) (assay: Inhibition of TrkA (unknown origin)).

IC50, ≤ 10 µM:
O=C(c1cccc(NS(=O)(=O)CC(F)(F)F)c1F)c1c[nH]c2ncncc12

Source: ChEMBL document CHEMBL3727342, “Compounds and methods for kinase modulation, and indications therefor” (2012)
